Results as given in patent publication US7091340B2, “Polymorphs” (Boehringer Ingelheim Pharmaceuticals, Inc., priority 2003, dated 2006).

Key:
[1] = Microscopical solution phase transformation experiments; format: physicochemical; conditions: room temperature; Forms IV and VI compared
[2] = Solubility vs. temperature profile experiments; format: physicochemical; conditions: within the temperature range of the experiment

- thermodynamic relationship of the two forms [2]: monotropically related
SMILES: Cc1ccc(-n2nc(C(C)(C)C)cc2NC(=O)Nc2ccc(OCCN3CCOCC3)c3ccccc23)cc1 [Form VI, 1-(5-tert-butyl-2-p-tolyl-2H-pyrazol-3-yl)-3-[4-(2-morpholin-4-yl-ethoxy)-naphthalen-1-yl]-urea]
- thermodynamic stability relative to Form IV [1]: more thermodynamically stable at room temperature relative to Form IV
- thermodynamic stability relative to Form IV ([2]; Forms IV and VI compared): more thermodynamically stable relative to Form IV
